Experimental data published in patent publication US12453725B2, “Treatment of inflammatory disease” (Celleron Therapeutics Limited, priority 2019, dated 2025).

Test: Phase Ib/II clinical trial CTL-101-023, CXD101 with nivolumab, safety
Format: in vivo, human
Conditions: study CTL-101-023
Description: A clinical trial was conducted involving 55 subjects. The clinical trial protocol is summarized below: • Protocol Number: CTL-101-023 • Investigational Product: CXD101 and nivolumab Active Ingredient(s)/INN: • CXD101 or N-(2-aminophenyl)-4-(1-[(1,3-dimethyl-1H-pyrazol-4yl) methyl]piperidin-4-yl)benzamide is a Class I-selective histone deacetylase (HDAC) inhibitor. • Nivolumab is a programmed death receptor-1 (PD-1)-blocking antibody. […] 2. […] Subjects may continue to receive CXD101/nivolumab until complete response, disease progression, unacceptable toxicity, withdrawal of consent, or other medical problems supervene. • Efficacy will be measured using Immune Response Evaluation Criteria in Solid Tumours (iRECIST) Imaging studies, typically CT scan of chest, abdomen & pelvis, supplemented by MRI of liver when required, will be performed at Baseline and after every 6 weeks, with objective confirmation of response 6 weeks (+/−1 week) after observation. • Safety parameters will be assessed as in the Phase I study. […]

Cc1nn(C)cc1CN1CCC(c2ccc(C(=O)Nc3ccccc3N)cc2)CC1 [CXD101, N-(2-aminophenyl)-4-(1-[(1,3-dimethyl-1H-pyrazol-4-yl)methyl]piperidin-4-yl)benzamide]
neutropenia due to myelosuppression: varying degrees of neutropenia
